Assay [1] deals with human androgen receptor (full length, wild-type form) (Homo sapiens (Human), UniProt P10275). As to the kind of experiment: Transactivation assay for the wild-type androgen receptor (PC-3 cells, MMTV-luciferase reporter). Type of assay: cell-based. To be noted: in the presence of R1881, 16 hours. From the text:
For determining the androgen receptor-dependent transcription, a cellular assay system was used, consisting of PC-3 cells (Kaighn et al., Invest. Urol. 17: 16-23, 1979), which express the human androgen receptor stably and recombinantly (full length, wild-type form, see Swiss-Prot Acc. No. P10275, Entry Version 159, Sequence Version 2). In addition, these PC3 cells contain a stably integrated reporter gene plasmid, which is based on the commercially available plasmid pGL4.14 (#E6691, Promega Corporation, Madison, Wis., USA) and contains the luciferase gene from the American firefly (Photinus pyralis) under the control of the MMTV promoter (Cato et al., EMBO J. 6: 363-368, 1987). These cells were propagated in routine cell culture at 37° C. and 5% CO2 in a medium containing 90% RPMI 1640 (Invitrogen GmbH, Darmstadt, Germany), 100 U penicillin, 100 μg/ml streptomycin (Invitrogen), 4 mM L-glutamine (Invitrogen), 10% fetal calf serum (FCS Serum Gold, PAA Laboratories GmbH, Cölbe, Germany), 600 μg/ml Geneticin (G418-sulphate, Invitrogen) and 10 μg/ml puromycin (Sigma Aldrich GmbH, Germany).
For carrying out the transactivation assays, approx. 1000 cells per well were plated out in a 384-well cell culture plate in a medium that contained activated charcoal-treated calf serum (FCS Serum Gold, PAA Laboratories) at a concentration of 5% (v/v). The test substances were added in a concentration series from 5.12×10^−12 to 1×10^−5 M in the presence of […] R1881 (methyltrienolone). The test plates were incubated overnight at 37° C. and 5% CO2. After 16 hours, 15 μl of Steady Glo Lysis and Detection reagent (E2550, Promega Corporation, Madison, Wis., USA) was added per well and the luminescence was read in a Topcount Luminometer (PerkinElmer, Waltham, Mass., USA) for 4 seconds per well. The luminescence values obtained were normalized, wherein 100% corresponded to the effect of the unstimulated control (without R1881), and 0% corresponded to the effect of the stimulated control (R1881 plus DMSO instead of test substance). The IC50 value was determined by regression analysis based on a four-parameter equation (minimum, maximum, IC50, Hill coefficient; Y=Max+(Min−Max)/(1+(X/IC50)^Hill)).

Assay [2] relates to LNCaP cells. In words: Proliferation assay with LNCaP cells. Type of assay: cell-based. To be noted: Homo sapiens, 168 h, in the presence of 1×10^−10 M R1881, seven days, AlamarBlue, read-out: IC50 LNCaP cell proliferation. The procedure: LNCaP cells (Horoszewicz et al., in “Models for Prostate Cancer” (ed. G. P. Murphy), Alan R. Liss, New York 1981, p. 115-132; Horoszewicz et al., Cancer Res. 43: 1809-1818, 1983) were plated out at a density of 2000 cells per well of a 96-well cell culture plate in RMPI 1640 medium (F1275, Biochrom AG), which contained activated charcoal-treated calf serum (FCS Serum Gold, PAA Laboratories) at a concentration of 5% (v/v). Three days later the cells were treated with the test substances in concentrations from 1×10^−8 to 1×10^−10 M in the presence of 1×10^−10 M R1881. Cell proliferation was determined seven days later after incubation for 2 hours with AlamarBlue (DAL1100, Invitrogen) (Nakayama et al., J Immunol Methods, 204(2): 205-8, 1997). The fluorescence values obtained were normalized, wherein 100% corresponded to the effect of the unstimulated control (without R1881), and 0% corresponded to the effect of the stimulated control (R1881 plus DMSO instead of test substance). The IC50 value was determined by regression analysis based on a four-parameter equation (minimum, maximum, IC50, Hill coefficient; Y=Max+(Min−Max)/(1+(X/IC50)^Hill)).
For orientation: Alamar Blue is a resazurin reagent that responds to reducing activity.

In patent publication US9428460B2, “N-[4-(quinolin-4-yloxy)cyclohexyl(methyl)](hetero)arylcarboxamides as androgen receptor antagonists, production and use thereof as medicinal products” (BAYER PHARMA AKTIENGESELLSCHAFT, priority 2012, dated 2016) one finds IC50 data, which are given here for 26 compounds.

SMILES strings stand for the structures.

Sequence of human androgen receptor (full length, wild-type form) (P10275 whole entry): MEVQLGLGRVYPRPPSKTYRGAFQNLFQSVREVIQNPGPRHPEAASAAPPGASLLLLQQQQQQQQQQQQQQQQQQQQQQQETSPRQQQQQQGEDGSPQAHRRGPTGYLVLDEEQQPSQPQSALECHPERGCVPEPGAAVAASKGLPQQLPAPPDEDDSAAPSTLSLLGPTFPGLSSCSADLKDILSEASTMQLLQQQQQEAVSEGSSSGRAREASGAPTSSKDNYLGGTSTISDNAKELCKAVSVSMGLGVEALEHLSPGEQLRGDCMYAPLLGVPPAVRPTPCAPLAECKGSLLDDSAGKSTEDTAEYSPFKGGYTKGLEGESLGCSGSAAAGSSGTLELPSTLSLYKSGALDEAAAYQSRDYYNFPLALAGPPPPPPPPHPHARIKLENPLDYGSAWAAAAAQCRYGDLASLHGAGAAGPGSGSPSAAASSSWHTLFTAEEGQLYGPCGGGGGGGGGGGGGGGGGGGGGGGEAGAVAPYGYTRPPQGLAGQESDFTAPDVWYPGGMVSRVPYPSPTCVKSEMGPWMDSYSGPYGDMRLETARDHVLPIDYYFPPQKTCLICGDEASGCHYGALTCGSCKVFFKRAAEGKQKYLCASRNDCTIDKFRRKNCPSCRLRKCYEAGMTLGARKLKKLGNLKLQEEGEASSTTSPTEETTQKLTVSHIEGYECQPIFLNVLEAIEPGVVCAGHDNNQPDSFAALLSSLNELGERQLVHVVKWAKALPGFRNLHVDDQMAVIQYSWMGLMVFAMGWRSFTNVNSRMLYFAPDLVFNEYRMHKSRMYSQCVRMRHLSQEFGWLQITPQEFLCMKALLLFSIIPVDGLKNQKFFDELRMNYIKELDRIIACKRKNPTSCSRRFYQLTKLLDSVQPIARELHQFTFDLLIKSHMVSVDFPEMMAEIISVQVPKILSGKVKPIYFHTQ

As to `Cc1cc(C(=O)NC[C@H]2CC[C@H](Oc3ccnc4c(C#N)cccc34)CC2)no1` [Example 32, N-({trans-4-[(8-cyanoquinolin-4-yl)oxy]cyclohexyl}methyl)-5-methylisoxazole-3-carboxamide], the IC50 in assay [1] is 650 nM; in assay [2], 560 nM.
For `Cc1cc(C(=O)N[C@H]2CC[C@H](Oc3ccnc4c(Br)cccc34)CC2)no1` [Example 2, N-{trans-4-[(8-bromoquinolin-4-yl)oxy]cyclohexyl}-5-methylisoxazole-3-carboxamide], the IC50 in assay [1] came to 20 nM.
With `O=C(NC[C@H]1CC[C@H](Oc2ccnc3c(F)cccc23)CC1)c1ccon1` [Example 6, N-({trans-4-[(8-fluoroquinolin-4-yl)oxy]cyclohexyl}methyl)isoxazole-3-carboxamide], the IC50 in assay [1] came to 740 nM; in assay [2], 21 nM.
On to `O=C(N[C@H]1CC[C@H](Oc2ccnc3c(Br)cccc23)CC1)c1cccc(F)c1` [Example 12, N-{trans-4-[(8-bromoquinolin-4-yl)oxy]cyclohexyl}-3-fluorobenzamide], for which, in assay [1], the IC50 was 93 nM.
With `O=C(NC[C@H]1CC[C@H](Oc2ccnc3c(F)cccc23)CC1)c1cc[nH]n1` [Example 8, N-({trans-4-[(8-fluoroquinolin-4-yl)oxy]cyclohexyl}methyl)-1H-pyrazole-3-carboxamide], the IC50 stood at 420 nM in assay [1] and 1120 nM in assay [2].
For `N#Cc1ccc(C(=O)N[C@H]2CC[C@H](Oc3ccnc4c(Br)cccc34)CC2)cc1` [Example 15, N-{trans-4-[(8-bromoquinolin-4-yl)oxy]cyclohexyl}-4-cyanobenzamide], in that order: 261 nM and 190 nM.
Regarding `Cc1ccc(C(=O)N[C@H]2CC[C@H](Oc3ccnc4c(Br)cccc34)CC2)cc1F` [Example 14, N-{trans-4-[(8-bromoquinolin-4-yl)oxy]cyclohexyl}-3-fluoro-4-methylbenzamide], the IC50 in assay [1] was 68 nM.
The same measure, in the same setting: in the case of `O=C(NC[C@H]1CC[C@H](Oc2ccnc3c(Br)cccc23)CC1)c1ccon1` [Example 21, N-({trans-4-[(8-bromoquinolin-4-yl)oxy]cyclohexyl}methyl)isoxazole-3-carboxamide] it was 630 nM.
For the compound `N#Cc1cccc2c(O[C@H]3CC[C@H](NC(=O)c4ccc(Cl)c(F)c4)CC3)ccnc12` [Example 29, 4-chloro-N-{trans-4-[(8-cyanoquinolin-4-yl)oxy]cyclohexyl}-3-fluorobenzamide], the IC50 was 61 nM in assay [1] and 29 nM in assay [2].
Taken in the same sequence, the figures for `N#Cc1cccc2c(O[C@H]3CC[C@H](NC(=O)c4ccc(F)cc4)CC3)ccnc12` [Example 25, N-{trans-4-[(8-cyanoquinolin-4-yl)oxy]cyclohexyl}-4-fluorobenzamide] were 140 nM and 233 nM.
`N#Cc1cccc2c(O[C@H]3CC[C@H](NC(=O)c4cc(F)cc(F)c4)CC3)ccnc12` [Example 30, N-{trans-4-[(8-cyanoquinolin-4-yl)oxy]cyclohexyl}-3,5-difluorobenzamide]: the results for the IC50 in assay [1] and in assay [2] were 39 nM and 30 nM, respectively.
With `O=C(NC[C@H]1CC[C@H](Oc2ccnc3c(F)cccc23)CC1)c1ccno1` [Example 5, N-({trans-4-[(8-fluoroquinolin-4-yl)oxy]cyclohexyl}methyl)-isoxazole-5-carboxamide], the IC50 amounted to 460 nM in assay [1] and 390 nM in assay [2].
With `N#Cc1ccc(C(=O)NC[C@H]2CC[C@H](Oc3ccnc4ccccc34)CC2)cc1` [Example 22, N-{[trans-4-(4-quinolyloxy)cyclohexyl]methyl}-4-cyanobenzamide], the IC50 in assay [1] is 330 nM; in assay [2], 87 nM.
Take `N#Cc1cccc2c(O[C@H]3CC[C@H](NC(=O)c4ccc(F)c(Cl)c4)CC3)ccnc12` [Example 27, 3-chloro-N-{trans-4-[(8-cyanoquinolin-4-yl)oxy]cyclohexyl}-4-fluorobenzamide]: the IC50 in assay [1] turned out to be 67 nM.
For `Cc1ccc(C(=O)N[C@H]2CC[C@H](Oc3ccnc4c(C#N)cccc34)CC2)cc1F` [Example 28, N-{trans-4-[(8-cyanoquinolin-4-yl)oxy]cyclohexyl}-3-fluoro-4-methylbenzamide], the IC50 in assay [1] turned out to be 45 nM; in assay [2], 51 nM.
Regarding `O=C(N[C@H]1CC[C@H](Oc2ccnc3c(Br)cccc23)CC1)c1ccc(F)cc1` [Example 17, N-{trans-4-[(8-bromoquinolin-4-yl)oxy]cyclohexyl}-4-fluorobenzamide], the IC50 in assay [1] worked out at 477 nM.
As for `O=C(NC[C@H]1CC[C@H](Oc2ccnc3c(F)cccc23)CC1)c1ccc(F)cc1` [Example 1, N-({trans-4-[(8-fluoroquinolin-4-yl)oxy]cyclohexyl}methyl)-4-fluorobenzamide], the IC50 was 240 nM in assay [1] and 170 nM in assay [2].
As for `O=C(N[C@H]1CC[C@H](Oc2ccnc3c(Br)cccc23)CC1)c1ccc(C(F)(F)F)c(F)c1` [Example 16, N-{trans-4-[(8-bromoquinolin-4-yl)oxy]cyclohexyl}-3-fluoro-4-(trifluoromethyl)benzamide], in assay [1], the IC50 worked out at 463 nM.
As to `Cc1cc(C(=O)NC[C@H]2CC[C@H](Oc3ccnc4c(F)cccc34)CC2)no1` [Example 7, N-({trans-4-[(8-fluoroquinolin-4-yl)oxy]cyclohexyl}methyl)-5-methylisoxazole-3-carboxamide], the IC50 in assay [1] is 480 nM; in assay [2] it was 97 nM.
Turning to `O=C(N[C@H]1CC[C@H](Oc2ccnc3c(Br)cccc23)CC1)c1ccc(F)c(F)c1` [Example 13, N-{trans-4-[(8-bromoquinolin-4-yl)oxy]cyclohexyl}-3,4-difluorobenzamide], in assay [1], the IC50 came to 170 nM.
The same measure, in the same setting: the value for `O=C(N[C@H]1CC[C@H](Oc2ccnc3c(Br)cccc23)CC1)c1ccc(F)c(Cl)c1` [Example 18, N-{trans-4-[(8-bromoquinolin-4-yl)oxy]cyclohexyl}-3-chloro-4-fluorobenzamide] was 190 nM.
As to `N#Cc1cccc2c(O[C@H]3CC[C@H](CNC(=O)c4ccon4)CC3)ccnc12` [Example 31, N-({trans-4-[(8-cyanoquinolin-4-yl)oxy]cyclohexyl}methyl)isoxazole-3-carboxamide], the IC50 in assay [1] came out at 720 nM; in assay [2], 730 nM.
`Cc1cc(C(=O)N[C@H]2CC[C@H](Oc3ccnc4c(C#N)cccc34)CC2)no1` [Example 26, N-{trans-4-[(8-cyanoquinolin-4-yl)oxy]cyclohexyl}-5-methylisoxazole-3-carboxamide]: the IC50 in assay [1] worked out at 18 nM.
For `O=C(N[C@H]1CC[C@H](Oc2ccnc3ccccc23)CC1)c1ccc(F)c(F)c1` [Example 3, N-[trans-4-(4-quinolyloxy)cyclohexyl]-3,4-difluorobenzamide], the figures for the IC50 in assay [1] and in assay [2] were 45 nM and 99 nM, respectively.
For `Cc1nocc1C(=O)NC[C@H]1CC[C@H](Oc2ccnc3c(F)cccc23)CC1` [Example 4, N-({trans-4-[(8-fluoroquinolin-4-yl)oxy]cyclohexyl}methyl)-3-methylisoxazole-4-carboxamide], in that order: 210 nM and 250 nM.
For `Cc1cc(C(=O)NC[C@H]2CC[C@H](Oc3ccnc4c(Br)cccc34)CC2)no1` [Example 20, N-({trans-4-[(8-bromoquinolin-4-yl)oxy]cyclohexyl}methyl)-5-methylisoxazole-3-carboxamide], in assay [1], the IC50 came to 690 nM.
